Values quoted from earlier work, collected in PubChem BioAssay AID1259409 (Chemical Carcinogenesis Research Information System (CCRIS), 2018).

System: rodent chemically induced tumor inhibition, incidence and multiplicity
Assay: CCRIS tumor inhibitor studies
Conditions: Route [Inhibitor]: ORAL, Species: RAT

In the case of `C=CC1=C(C)C2=CC3=NC(=C(CC(=O)O)C4=NC(=C(C)C4=C(O)O)C=c4[nH]c(c(C)c4CC)=CC1=N2)C(CCC(=O)O)C3C` (stereo not given), the “tumour outcome (control, treated, inhibition, significance)” value (Carcinogen: 1,2-DIMETHYLHYDRAZINE [540-73-8], Dose [Inhibitor]: 0, 0.001% (W/V BASED ON TOTAL CHLORINS) IN DRINKING WATER BEGINNING 1 WK POST CARCINOGEN TREATMENT FOR THE DURATION STUD, Strain/Sex: F344/MALE, Target Tissue: Type of Lesion: COLON: TUMOR, Dose [Carcinogen]: 20 MG/KG FOR FIRST 5 WK (STUDY DURATION: 52 WK), Promoter: NONE) is given as 20/23 (87%), 18/20 (90%), -3.4%, not significant, the “tumour outcome (control, treated, inhibition, significance)” value (Carcinogen: 1,2-DIMETHYLHYDRAZINE [540-73-8], Dose [Inhibitor]: 0, 0.001% (W/V BASED ON TOTAL CHLORINS) IN DRINKING WATER BEGINNING 1 WK POST CARCINOGEN TREATMENT FOR THE DURATION STUD, Strain/Sex: F344/MALE, Target Tissue: Type of Lesion: SMALL INTESTINE: TUMOR, Dose [Carcinogen]: 20 MG/KG BW/WK FOR FIRST 5 WK (STUDY DURATION: 52 WK), Promoter: NONE) is given as 12/23 (52%), 6/20 (30%), 42%, not significant and the “tumour outcome (control, treated, inhibition, significance)” value (Carcinogen: 1,2-DIMETHYLHYDRAZINE [540-73-8], Dose [Inhibitor]: 0, 0.01% (W/V BASED ON TOTAL CHLORINS) IN DRINKING WATER BEGINNING 1 WK POST CARCINOGEN TREATMENT FOR THE DURATION STUDY, Strain/Sex: F344/MALE, Target Tissue: Type of Lesion: SMALL INTESTINE: TUMOR, Dose [Carcinogen]: 20 MG/KG BW/WK FOR FIRST 5 WK (STUDY DURATION: 52 WK), Promoter: NONE) is given as 12/23 (52%), 11/20 (55%), -6%, not significant. The “tumour outcome (control, treated, inhibition, significance)” value (Carcinogen: 1,2-DIMETHYLHYDRAZINE [540-73-8], Dose [Inhibitor]: 0, 0.1% (W/V BASED ON TOTAL CHLORINS) IN DRINKING WATER BEGINNING 1 WK POST CARCINOGEN TREATMENT FOR THE DURATION STUDY, Strain/Sex: F344/MALE, Target Tissue: Type of Lesion: SMALL INTESTINE: TUMOR, Dose [Carcinogen]: 20 MG/KG BW/WK FOR FIRST 5 WK (STUDY DURATION: 52 WK), Promoter: NONE) was 12/23 (52%), 5/20 (25%), 52%, not significant, the “tumour outcome (control, treated, inhibition, significance)” value (Carcinogen: 1,2-DIMETHYLHYDRAZINE [540-73-8], Strain/Sex: F344/MALE, Target Tissue: Type of Lesion: COLON: TUMOR, Dose [Carcinogen]: 20 MG/KG FOR FIRST 5 WK (STUDY DURATION: 52 WK), Promoter: NONE) was 20/23 (87%), 20/20 (100%), -15%, not significant and the “tumour outcome (control, treated, inhibition, significance)” value (Carcinogen: 2-AMINO-1-METHYL-6-PHENYL-1H-IMIDAZO[4,5-B]PYRID INE, 105650-23-5, Dose [Inhibitor]: 0, 1% IN THE DIET FOR 52 WK (STUDY DURATION: 52 WK), Strain/Sex: F344/FEMALE, Target Tissue: Type of Lesion: MAMMARY GLAND: ADENOCARCINOMA, Dose [Carcinogen]: 0.02% IN THE DIET FOR 52 WK, Promoter: NONE USED) was 8/20 (40%), 3/20 (15%), 63%, not significant. For the same compound, the “tumour outcome (control, treated, inhibition, significance)” value (Carcinogen: 2-AMINO-1-METHYL-6-PHENYL-1H-IMIDAZO[4,5-B]PYRID INE, 105650-23-5, Dose [Inhibitor]: 0, 1% IN THE DIET FOR 52 WK (STUDY DURATION: 52 WK), Strain/Sex: F344/FEMALE, Target Tissue: Type of Lesion: MAMMARY GLAND: FIBROADENOMA, Dose [Carcinogen]: 0.02% IN THE DIET FOR 52 WK, Promoter: NONE USED) was 2/20 (10%), 0/20 (0%), 100%, not significant, the “tumour outcome (control, treated, inhibition, significance)” value (Carcinogen: 2-AMINO-3-METHYLIMIDAZO[4,5-F]QUINOLINE [76180-96-6], Dose [Inhibitor]: 0, 0.001% (W/V BASED ON TOTAL CHLORINS) IN DRINKING WATER BEGINNING 1 WK POST CARCINOGEN TREATMENT FOR THE DURATION STUD, Strain/Sex: F344/MALE, Target Tissue: Type of Lesion: COLON: TUMOR, Dose [Carcinogen]: 0.03% IN DIET FOR FIRST 5 WK (STUDY DURATION: 52 WK), Promoter: NONE) was 2/22 (9%), 2/20 (10%), -11%, not significant and the “tumour outcome (control, treated, inhibition, significance)” value (Carcinogen: 2-AMINO-3-METHYLIMIDAZO[4,5-F]QUINOLINE [76180-96-6], Dose [Inhibitor]: 0, 0.001% (W/V BASED ON TOTAL CHLORINS) IN DRINKING WATER BEGINNING 1 WK POST CARCINOGEN TREATMENT FOR THE DURATION STUD, Strain/Sex: F344/MALE, Target Tissue: Type of Lesion: LIVER: TUMOR, Dose [Carcinogen]: 0.03% IN DIET FOR FIRST 5 WK (STUDY DURATION: 52 WK), Promoter: NONE) was 16/22 (73%), 12/20 (60%), 18%, not significant. For the same compound, the “tumour outcome (control, treated, inhibition, significance)” value (Carcinogen: 2-AMINO-3-METHYLIMIDAZO[4,5-F]QUINOLINE [76180-96-6], Dose [Inhibitor]: 0, 0.001% (W/V BASED ON TOTAL CHLORINS) IN DRINKING WATER BEGINNING 1 WK POST CARCINOGEN TREATMENT FOR THE DURATION STUD, Strain/Sex: F344/MALE, Target Tissue: Type of Lesion: SKIN: TUMOR, Dose [Carcinogen]: 0.03% IN DIET FOR FIRST 5 WK (STUDY DURATION: 52 WK), Promoter: NONE) was 7/22 (32%), 5/20 (25%), 22%, not significant, the outcome (Carcinogen: 2-AMINO-3-METHYLIMIDAZO[4,5-F]QUINOLINE [76180-96-6], Dose [Inhibitor]: 0, 0.001% (W/V BASED ON TOTAL CHLORINS) IN DRINKING WATER BEGINNING 1 WK POST CARCINOGEN TREATMENT FOR THE DURATION STUD, Strain/Sex: F344/MALE, Target Tissue: Type of Lesion: SMALL INTESTINE: TUMOR, Dose [Carcinogen]: 0.03% IN DIET FOR FIRST 5 WK (STUDY DURATION: 52 WK), Promoter: NONE) was 0/22 (0%), 1/20 (5%), -%, not significant and the “tumour outcome (control, treated, inhibition, significance)” value (Carcinogen: 2-AMINO-3-METHYLIMIDAZO[4,5-F]QUINOLINE [76180-96-6], Dose [Inhibitor]: 0, 0.001% (W/V BASED ON TOTAL CHLORINS) IN DRINKING WATER BEGINNING 1 WK POST CARCINOGEN TREATMENT FOR THE DURATION STUD, Strain/Sex: F344/MALE, Target Tissue: Type of Lesion: ZYMBAL'S GLAND: TUMOR, Dose [Carcinogen]: 0.03% IN DIET FOR FIRST 5 WK (STUDY DURATION: 52 WK), Promoter: NONE) was 5/22 (23%), 3/20 (15%), 35%, not significant. The “tumour outcome (control, treated, inhibition, significance)” value (Carcinogen: 2-AMINO-3-METHYLIMIDAZO[4,5-F]QUINOLINE [76180-96-6], Dose [Inhibitor]: 0, 0.01% (W/V BASED ON TOTAL CHLORINS) IN DRINKING WATER BEGINNING 1 WK POST CARCINOGEN TREATMENT FOR THE DURATION STUDY, Strain/Sex: F344/MALE, Target Tissue: Type of Lesion: COLON: TUMOR, Dose [Carcinogen]: 0.03% IN DIET FOR FIRST 5 WK (STUDY DURATION: 52 WK), Promoter: NONE) was 2/22 (9%), 2/20 (10%), -11%, not significant, the “tumour outcome (control, treated, inhibition, significance)” value (Carcinogen: 2-AMINO-3-METHYLIMIDAZO[4,5-F]QUINOLINE [76180-96-6], Dose [Inhibitor]: 0, 0.01% (W/V BASED ON TOTAL CHLORINS) IN DRINKING WATER BEGINNING 1 WK POST CARCINOGEN TREATMENT FOR THE DURATION STUDY, Strain/Sex: F344/MALE, Target Tissue: Type of Lesion: LIVER: TUMOR, Dose [Carcinogen]: 0.03% IN DIET FOR FIRST 5 WK (STUDY DURATION: 52 WK), Promoter: NONE) was 16/22 (73%), 10/20 (50%), 31.5%, not significant and the “tumour outcome (control, treated, inhibition, significance)” value (Carcinogen: 2-AMINO-3-METHYLIMIDAZO[4,5-F]QUINOLINE [76180-96-6], Dose [Inhibitor]: 0, 0.01% (W/V BASED ON TOTAL CHLORINS) IN DRINKING WATER BEGINNING 1 WK POST CARCINOGEN TREATMENT FOR THE DURATION STUDY, Strain/Sex: F344/MALE, Target Tissue: Type of Lesion: SKIN: TUMOR, Dose [Carcinogen]: 0.03% IN DIET FOR FIRST 5 WK (STUDY DURATION: 52 WK), Promoter: NONE) was 7/22 (32%), 7/20 (35%), -9%, not significant.
